These results are taken from publication PMC6600574 (Molecules, 2019).

Experiment [1] can be described thus: DPPH radical scavenging assay. Type of experiment: biochemical. The conditions noted are these: DPPH in ethanol, 30 min. The procedure:
Ascorbic acid was serially diluted to a concentration range of 0.78–100 µg/mL. Ethanol (10%) was used as a blank. Ninety microliters of a […] DPPH (2,2-diphenyl-1-picrylhydrazyl) in ethanol were added to each well. The plates were incubated for 30 min and covered in a layer of foil. Color controls (negative controls) were prepared in the exact same manner as above, but distilled water was added to each well instead of DPPH. The absorbances were measured at a wavelength of 515 nm using a BIO-TEK Power-Wave XS multiplate reader (BIO-TEK Instruments, Winooski, VT, USA). From the absorbances an IC50 value was determined.

Experiment [2] in a line: Nitric oxide scavenging assay (nitroprusside, Griess reagent). Type of experiment: biochemical. The conditions noted are these: 10 mM nitroprusside, 90 min, read-out: NO IC50. Here is the method:
Ethanol (10%) was used as a blank. Nitroprusside (50 μL) at a concentration of 10 mM was added to all the wells. The plates were incubated for 90 min at room temperature. After incubation, Griess reagent (100 μL) was added to all the wells, except for the color controls (negative controls) where instead distilled water was added. The absorbances were read at a wavelength of 546 nm using a BIO-TEK Power-Wave XS multiplate reader. From the absorbances an IC50 value was determined.
Background: Griess reagent forms a coloured azo dye with nitrite.

The IC50 is the concentration needed to halve the response being measured. For the compound `O=C1O[C@H]([C@@H](O)CO)C(O)=C1O` [Ascorbic acid, reference compound], the IC50 was determined as 43.7 ± 1.12 µM in experiment [1] and 144 ± 3.3 µM in experiment [2].
